The values below come from patent publication US4450269A, “Mono-5-substituted-3-chloro-4H-1,2,6-thiadiazin-4-one antifungal agents” (FMC Corporation, priority 1980, dated 1984).

Assay in all cases: Spore germination test
What all share (assay type): cell-based

For one experiment, the system named is Alternaria solani. As to conditions: AS, 48 hours. In short, it runs like this: (§1)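 Compound was delivered in acetone into water agar at final 40, 10, 2.5 and 1 ppm. Alternaria solani and Botrytis cinerea spores were applied as sterile-water suspensions, while Erysiphe polygoni and Uromyces phaseoli spores were brushed on from infected leaves. After 48 h at 24° C., percentage germination was converted to a rating.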

Another experiment relates to Botrytis cinerea. The following applies: BC, 48 hours. In a few lines: as §1
A further experiment relates to Erysiphe polygoni. The following applies: EP, 48 hours. In short, it runs like this:
as §1

On to `CC(=O)Nc1cccc(Oc2nsnc(Cl)c2=O)c1` [Compound 42, 3-[(3-N--acetylamino)-phenoxy]-5-chloro-4H--1,2,6-thiadiazin-4-one], for which the “Spore Germination Rating” value is on record as 4 (80-100) in the experiment on Alternaria solani (1.0 ppm); 4 (80-100) in the experiment on Alternaria solani (2.5 ppm); 4 (80-100) with Alternaria solani (10 ppm); 2 (40-60) in the experiment on Alternaria solani (40 ppm); 4 (80-100) in the experiment on Botrytis cinerea (1.0 ppm); 4 (80-100) in the experiment with Botrytis cinerea (2.5 ppm). Further, the “Spore Germination Rating” value with Botrytis cinerea (10 ppm) is given as 4 (80-100); in the experiment with Botrytis cinerea (40 ppm), 1 (10-40); in the experiment with Erysiphe polygoni (1.0 ppm), 4 (80-100); in the experiment with Erysiphe polygoni (2.5 ppm), 4 (80-100); in the experiment with Erysiphe polygoni (10 ppm) it was 4 (80-100); in the experiment with Erysiphe polygoni (40 ppm), 4 (80-100).
Regarding `CC(=O)Nc1ccccc1Oc1nsnc(Cl)c1=O` [Compound 43, 3-[(2-acetylamino)-phenoxy]-5-chloro-4H--1,2,6-thiadiazin-4-one], the “Spore Germination Rating” value is 4 (80-100) in the experiment with Alternaria solani (1.0 ppm); 4 (80-100) with Alternaria solani (2.5 ppm); 4 (80-100) with Alternaria solani (10 ppm); 3 (60-80) in the experiment on Alternaria solani (40 ppm); 4 (80-100) in the experiment on Botrytis cinerea (1.0 ppm); 4 (80-100) in the experiment on Botrytis cinerea (2.5 ppm). Moreover, the “Spore Germination Rating” value is reported as 4 (80-100) with Botrytis cinerea (10 ppm); 3 (60-80) with Botrytis cinerea (40 ppm); 4 (80-100) in the experiment on Erysiphe polygoni (1.0 ppm); 4 (80-100) in the experiment on Erysiphe polygoni (2.5 ppm); 4 (80-100) in the experiment on Erysiphe polygoni (10 ppm); 1 (10-40) with Erysiphe polygoni (40 ppm).
On to `O=c1c(Cl)nsnc1Oc1cccc(C(F)(F)F)c1` [Compound 44, 3-chloro-5-[(3-trifluoromethyl)phenoxy]-4H--1,2,6-thiadiazin-4-one], for which the “Spore Germination Rating” value is 4 (80-100) with Alternaria solani (1.0 ppm); 1 (10-40) with Alternaria solani (2.5 ppm); 0 (0-10) in the experiment with Alternaria solani (10 ppm); 0 (0-10) with Alternaria solani (40 ppm); 4 (80-100) in the experiment with Botrytis cinerea (1.0 ppm); 3 (60-80) with Botrytis cinerea (2.5 ppm). In addition, the “Spore Germination Rating” value is reported as 0 (0-10) with Botrytis cinerea (10 ppm); 0 (0-10) with Botrytis cinerea (40 ppm); 3 (60-80) with Erysiphe polygoni (1.0 ppm); 1 (10-40) with Erysiphe polygoni (2.5 ppm); 0 (0-10) in the experiment with Erysiphe polygoni (10 ppm); 0 (0-10) with Erysiphe polygoni (40 ppm).
Turning to `O=C(O)Cc1ccccc1Oc1nsnc(Cl)c1=O` [Compound 45, 3-(2-carboxymethylphenoxy)-5-chloro-4H--1,2,6-thiadiazin-4-one], the “Spore Germination Rating” value in the experiment with Alternaria solani (1.0 ppm) is on record as 4 (80-100); with Alternaria solani (2.5 ppm), 4 (80-100); in the experiment on Alternaria solani (10 ppm), 4 (80-100); with Alternaria solani (40 ppm), 2 (40-60); in the experiment on Botrytis cinerea (1.0 ppm) it was 4 (80-100); with Botrytis cinerea (2.5 ppm), 4 (80-100). Also, the “Spore Germination Rating” value in the experiment with Botrytis cinerea (10 ppm) is given as 4 (80-100); in the experiment on Botrytis cinerea (40 ppm), 2 (40-60); in the experiment on Erysiphe polygoni (1.0 ppm), 4 (80-100); with Erysiphe polygoni (2.5 ppm), 4 (80-100); in the experiment with Erysiphe polygoni (10 ppm), 4 (80-100); in the experiment with Erysiphe polygoni (40 ppm), 2 (40-60).
Regarding `N#CCc1ccc(Oc2nsnc(Cl)c2=O)cc1` [Compound 46, 3-chloro-5-[(4-cyanomethyl)-phenoxy]4H--1,2,6-thiadiazin-4-one], the “Spore Germination Rating” value with Alternaria solani (1.0 ppm) is 4 (80-100); with Alternaria solani (2.5 ppm), 2 (40-60); in the experiment with Alternaria solani (10 ppm) it was 2 (40-60); in the experiment with Alternaria solani (40 ppm), 0 (0-10); in the experiment on Botrytis cinerea (1.0 ppm), 4 (80-100); in the experiment on Botrytis cinerea (2.5 ppm) it was 3 (60-80). Besides, the “Spore Germination Rating” value is reported as 3 (60-80) in the experiment on Botrytis cinerea (10 ppm); 0 (0-10) in the experiment on Botrytis cinerea (40 ppm); 4 (80-100) with Erysiphe polygoni (1.0 ppm); 4 (80-100) in the experiment with Erysiphe polygoni (2.5 ppm); 4 (80-100) in the experiment on Erysiphe polygoni (10 ppm); 4 (80-100) in the experiment with Erysiphe polygoni (40 ppm).
As for `CC(=O)c1ccc(Oc2nsnc(Cl)c2=O)cc1` [Compound 47, 3-(4-acetylphenoxy)-5-chloro-4H--1,2,6-thiadiazin-4-one], the “Spore Germination Rating” value is 2 (40-60) with Alternaria solani (1.0 ppm); 0 (0-10) in the experiment with Alternaria solani (2.5 ppm); 0 (0-10) with Alternaria solani (10 ppm); 0 (0-10) with Alternaria solani (40 ppm); 4 (80-100) in the experiment with Botrytis cinerea (1.0 ppm); 1 (10-40) in the experiment on Botrytis cinerea (2.5 ppm). The “Spore Germination Rating” value is given as 0 (0-10) in the experiment with Botrytis cinerea (10 ppm); 0 (0-10) with Botrytis cinerea (40 ppm); 4 (80-100) in the experiment on Erysiphe polygoni (1.0 ppm); 4 (80-100) with Erysiphe polygoni (2.5 ppm); 4 (80-100) with Erysiphe polygoni (10 ppm); 1 (10-40) with Erysiphe polygoni (40 ppm).
`CC(=O)c1cccc(Oc2nsnc(Cl)c2=O)c1` [Compound 48, 3-(3-acetylphenoxy)-5-chloro-4H--1,2,6-thiadiazin-4-one]: the “Spore Germination Rating” value is given as 4 (80-100) with Alternaria solani (1.0 ppm); 3 (60-80) in the experiment with Alternaria solani (2.5 ppm); 0 (0-10) in the experiment on Alternaria solani (10 ppm); 0 (0-10) with Alternaria solani (40 ppm); 4 (80-100) with Botrytis cinerea (1.0 ppm); 4 (80-100) with Botrytis cinerea (2.5 ppm). The “Spore Germination Rating” value in the experiment on Botrytis cinerea (10 ppm) is listed as 0 (0-10); in the experiment on Botrytis cinerea (40 ppm), 0 (0-10); in the experiment with Erysiphe polygoni (1.0 ppm), 4 (80-100); in the experiment with Erysiphe polygoni (2.5 ppm), 4 (80-100); in the experiment on Erysiphe polygoni (10 ppm) it was 2 (40-60); in the experiment with Erysiphe polygoni (40 ppm) it was 2 (40-60).
Take `CC(=O)c1ccccc1Oc1nsnc(Cl)c1=O` [Compound 49, 3-(2-acetylphenoxy)-5-chloro-4H--1,2,6-thiadiazin-4-one]: the “Spore Germination Rating” value is given as 4 (80-100) with Alternaria solani (1.0 ppm); 3 (60-80) in the experiment with Alternaria solani (2.5 ppm); 2 (40-60) in the experiment on Alternaria solani (10 ppm); 0 (0-10) in the experiment with Alternaria solani (40 ppm); 1 (10-40) in the experiment on Botrytis cinerea (1.0 ppm); 1 (10-40) with Botrytis cinerea (2.5 ppm). Also, the “Spore Germination Rating” value was 0 (0-10) in the experiment on Botrytis cinerea (10 ppm); 0 (0-10) in the experiment with Botrytis cinerea (40 ppm); 4 (80-100) in the experiment with Erysiphe polygoni (1.0 ppm); 4 (80-100) in the experiment on Erysiphe polygoni (2.5 ppm); 2 (40-60) with Erysiphe polygoni (10 ppm); 2 (40-60) in the experiment with Erysiphe polygoni (40 ppm).
`O=C(O)c1ccc(Oc2nsnc(Cl)c2=O)cc1` [Compound 50, 3-(4-carboxyphenoxy)-5-chloro-4H--1,2,6-thiadiazin-4-one]: the “Spore Germination Rating” value with Alternaria solani (1.0 ppm), in the experiment on Alternaria solani (2.5 ppm), in the experiment with Alternaria solani (10 ppm), with Alternaria solani (40 ppm), in the experiment with Botrytis cinerea (1.0 ppm) and with Botrytis cinerea (2.5 ppm) was 4 (80-100) throughout. In addition, the “Spore Germination Rating” value in the experiment with Botrytis cinerea (10 ppm) is 4 (80-100); in the experiment with Botrytis cinerea (40 ppm), 4 (80-100); in the experiment on Erysiphe polygoni (1.0 ppm), 4 (80-100); in the experiment on Erysiphe polygoni (2.5 ppm), 4 (80-100); in the experiment with Erysiphe polygoni (10 ppm), 4 (80-100); in the experiment with Erysiphe polygoni (40 ppm) it was 2 (40-60).
For the compound `COc1ccc(Cl)c(Oc2nsnc(Cl)c2=O)c1` [Compound 51, 3-chloro-5-[(2-chloro-5-methoxy)phenoxy]-4H--1,2,6-thiadiazin-4-one], the “Spore Germination Rating” value in the experiment on Alternaria solani (1.0 ppm) was 4 (80-100); with Alternaria solani (2.5 ppm), 4 (80-100); in the experiment with Alternaria solani (10 ppm), 1 (10-40); with Alternaria solani (40 ppm), 0 (0-10); with Botrytis cinerea (1.0 ppm), 4 (80-100); with Botrytis cinerea (2.5 ppm), 3 (60-80). In addition, the “Spore Germination Rating” value is given as 0 (0-10) in the experiment with Botrytis cinerea (10 ppm); 0 (0-10) in the experiment on Botrytis cinerea (40 ppm); 4 (80-100) with Erysiphe polygoni (1.0 ppm); 4 (80-100) with Erysiphe polygoni (2.5 ppm); 0 (0-10) with Erysiphe polygoni (10 ppm); 0 (0-10) in the experiment on Erysiphe polygoni (40 ppm).
Consider `COc1cc(Cl)cc(Oc2nsnc(Cl)c2=O)c1` [Compound 52, 3-chloro-5-[(3-chloro-5-methoxy)phenoxy]-4H--1,2,6-thiadiazin-4-one], for which the “Spore Germination Rating” value in the experiment with Alternaria solani (1.0 ppm) is 4 (80-100); in the experiment on Alternaria solani (2.5 ppm), 3 (60-80); in the experiment with Alternaria solani (10 ppm) it was 0 (0-10); in the experiment with Alternaria solani (40 ppm), 0 (0-10); with Botrytis cinerea (1.0 ppm) it was 4 (80-100); in the experiment with Botrytis cinerea (2.5 ppm), 3 (60-80). Besides, the “Spore Germination Rating” value in the experiment with Botrytis cinerea (10 ppm) is reported as 0 (0-10); in the experiment on Botrytis cinerea (40 ppm), 0 (0-10); with Erysiphe polygoni (1.0 ppm), 4 (80-100); in the experiment on Erysiphe polygoni (2.5 ppm), 2 (40-60); with Erysiphe polygoni (10 ppm) it was 0 (0-10); with Erysiphe polygoni (40 ppm), 0 (0-10).
As to `O=c1c(Cl)nsnc1Oc1ccc([N+](=O)[O-])cc1Cl` [Compound 53, 3-chloro-5-(2-chloro-4-nitrophenoxy)-4H--1,2,6-thiadiazin-4-one], the “Spore Germination Rating” value in the experiment on Alternaria solani (1.0 ppm) was 2 (40-60); with Alternaria solani (2.5 ppm) it was 0 (0-10); in the experiment on Alternaria solani (10 ppm) it was 0 (0-10); in the experiment on Alternaria solani (40 ppm) it was 0 (0-10); with Botrytis cinerea (1.0 ppm) it was 3 (60-80); with Botrytis cinerea (2.5 ppm) it was 0 (0-10). The “Spore Germination Rating” value in the experiment on Botrytis cinerea (10 ppm) is listed as 0 (0-10); in the experiment with Botrytis cinerea (40 ppm), 0 (0-10); in the experiment on Erysiphe polygoni (1.0 ppm), 2 (40-60); with Erysiphe polygoni (2.5 ppm), 1 (10-40); in the experiment on Erysiphe polygoni (10 ppm), 0 (0-10); in the experiment with Erysiphe polygoni (40 ppm), 0 (0-10).
Take `Cc1cc(Oc2nsnc(Cl)c2=O)ccc1Cl` [Compound 54, 3-chloro-5-(4-chloro-3-methylphenoxy)-4H--1,2,6-thiadiazin-4-one]: the “Spore Germination Rating” value with Alternaria solani (1.0 ppm), in the experiment on Alternaria solani (2.5 ppm), in the experiment with Alternaria solani (10 ppm), in the experiment on Alternaria solani (40 ppm), with Botrytis cinerea (1.0 ppm) and with Botrytis cinerea (2.5 ppm) was 4 (80-100) in each case. In addition, the “Spore Germination Rating” value was 2 (40-60) in the experiment on Botrytis cinerea (10 ppm); 1 (10-40) in the experiment on Botrytis cinerea (40 ppm); 2 (40-60) with Erysiphe polygoni (1.0 ppm); 0 (0-10) in the experiment with Erysiphe polygoni (2.5 ppm); 0 (0-10) with Erysiphe polygoni (10 ppm); 0 (0-10) with Erysiphe polygoni (40 ppm).
